Measurements from publication PMC12774351, “A lignan compound regulates LPS modifications via PmrA/B signaling cascades to potentiate colistin efficacy in vivo” (PLOS Pathogens, 2025).

Molecular target: T1, PmrA (Salmonella enterica, UniProt A0A0F6BAF1)
T1 construct: gene basR
Experiment: isothermal titration calorimetry
Type: binding

T1 sequence (A0A0F6BAF1 entry or part of it): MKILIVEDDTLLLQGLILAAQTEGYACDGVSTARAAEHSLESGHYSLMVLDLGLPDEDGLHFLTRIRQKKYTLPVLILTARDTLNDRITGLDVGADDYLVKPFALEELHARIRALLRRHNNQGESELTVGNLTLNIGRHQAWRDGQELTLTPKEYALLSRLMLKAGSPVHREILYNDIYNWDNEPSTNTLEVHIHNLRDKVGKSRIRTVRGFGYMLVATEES

Compound: C=CCc1ccc(O)c(-c2cc(CC=C)ccc2O)c1 [magnolol]
- Kd: 2000 nM
